Experimental data as given in patent publication US9642861B2, “Methods of treating oral mucositis” (priority 2006, dated 2017).
Read-outs that look alike come from different tables or passages of the source.

How the values were obtained:
[1] = type: in vivo; settings: for Survival (animal recorded dead in weight table): first study; for survival status noted in Animal Weights table: second study, group 3
Excerpt: (§1) All animals were weighed daily and their survival recorded, in order to assess possible differences in animal weight among treatment groups as an indication for mucositis severity and/or possible toxicity resulting from the treatments.
All forty-eight (48) male Syrian Golden Hamsters were given an acute radiation dose of 40 Gy directed to their left buccal cheek pouch. This was accomplished by anesthetizing the animals and everting the left buccal pouch, while protecting the rest of the animal with a lead shield. Test materials were given either topically or by ip injection twice daily as detailed in Table 1. Mucositis was evaluated clinically starting on day 6, and continuing on alternate days until day 28. The study timeline is depicted in FIG. 1. Dose levels were determined based on the results of a previous acute toxicity study (data not shown), and the levels shown in Table 1.
(§2) Male LVG Syrian Golden Hamsters (Charles River Laboratories), aged 5 to 6 weeks, with average body weight of 84.1 g at study commencement, were used. Animals were individually numbered using an ear punch and housed in small groups of approximately 8 animals per cage. Animals were acclimatized prior to study commencement. During this period of 2 days, the animals were observed daily in order to reject animals that presented in poor condition.
The significance of these differences was evaluated by calculating the mean area under the curve for the percentage weight gain for each animal and comparing the groups using a OneWay ANOVA test. There was a significant difference between the control group and group 3 treated by ip injection with M40403 twice daily (30 mg/kg) on days −1 to 15 (P<0.001). There was also a significant difference between the control group and the group treated by ip injection with M40403 twice daily at 30 mg/kg/dose from day −1 to day 3 (P=0.018). No other significant differences were seen. […] Many of the groups with a significant reduction in weight gain are the same groups in which animal deaths were observed.

[2] = ACT-03 (Example 2): weights and survival; type: in vivo, Syrian Golden Hamsters; settings: for Survival (animal status in score table): individual animal, by day 6
Excerpt: as §1
All seventy-two (72) male Syrian Golden Hamsters were given an acute radiation dose of 40 Gy directed to their left buccal cheek pouch. This was accomplished by anesthetizing the animals and everting the left buccal pouch, while protecting the rest of the animal with a lead shield. Test materials were given either topically or by ip injection twice daily as detailed in Table 5. Mucositis was evaluated clinically starting on day 6, and continuing on alternate days until day 28. The study timeline is depicted in FIG. 7. Dose levels were determined based on the results of a previous acute toxicity study (data not published), and in the prior mucositis study of Example 1, shown in Table 5.
as §2, with “[…]” for “84.1 g”, “3” for “2”
The significance of these differences was evaluated by calculating the mean area under the curve for the percentage weight gain for each animal and comparing the groups using a One-Way ANOVA test. There were significant differences between the vehicle control group and the group treated with M40403 at 30 mg/kg/dose once daily from day −1 to day 3 (P=0.039), he group treated with M40403 at 3 mg/kg/dose twice daily from day −1 to day 3 (P=0.040), the group treated with M40403 at 10 mg/kg/dose twice daily from day −1 to day 3 (0.018), the group treated with M40403 at 30 mg/kg/dose twice daily from day −1 to day 3 (P<0.001), the group treated with M40403 at 30 mg/kg/dose once daily from day 0 to day 3 (P=0.009) and the group treated with M40403 at 30 mg/kg/dose twice daily from day 0 to day 3 (P=0.002).

[Cl-].[Cl-].[Mn+2].c1cc2nc(c1)CN[C@@H]1CCCC[C@H]1NCCN[C@@H]1CCCC[C@H]1NC2 [M40403]
Survival (animal recorded dead in weight table) ([1]; Group 2, day 0): dead
Survival (animal recorded dead in weight table) ([1]; Group 5, day 0): dead
Survival (animal recorded dead in weight table) ([1]; Group 6, day 0): dead
deaths during the study ([1]; group 3: ip 30 mg/kg bid day −1 to 15, hamster 19, after extended failure to gain weight): died on day 12
deaths during the study ([1]; group 6: ip 30 mg/kg bid day −1 to 3, appeared to be anesthesia overdose): two
average weight gain, % of starting weight by day 28 ([1]; hamster, in vivo, ip, 3 mg/kg): 66.0%
weight gain during dosing ([1]; hamster, in vivo, ip, 30 mg/kg): general lack of weight gain during dosing
toxicity based on mortality and body weight ([1]; ip injections twice daily at 30 mg/kg): appear to show some toxicity
survival status noted in Animal Weights table ([1]; animal 19, day 12): dead
survival status noted in Animal Weights table ([1]; animal 23, day 0): dead
deaths during the study, all on the day of radiation (Day 0) ([2]; 30 mg/kg once daily day 0 to 3): Two
deaths during the study, all on the day of radiation (Day 0) ([2]; 30 mg/kg once daily day −1 to 3): Two
deaths during the study, all on the day of radiation (Day 0) ([2]; 30 mg/kg once daily on day 0 and day 7 (so in the source)): One
deaths during the study, all on the day of radiation (Day 0) ([2]; 30 mg/kg twice daily day −1 to 3): Two
survival status noted in Animal Weights table ([2]; first study, group 9 (30 mg/kg/dose twice daily on day 0 and on day 7), animal 70, day 0): dead
Survival (animal status in score table) ([2]; group 2): dead
Survival (animal status in score table) ([2]; group 5): dead
Survival (animal status in score table) ([2]; group 6): dead
toxicity based on observations of body weight ([2]; hamster, in vivo, ip): appear to show some toxicity
P, One-Way ANOVA on mean AUC of percentage weight gain v vehicle control ([2]; hamster, in vivo, ip, 3 mg/kg): 0.040
average weight gain, % of starting weight during the study (day 28) ([2]; hamster, in vivo, ip, 3 mg/kg): 59.3%
P, One-Way ANOVA on mean AUC of percentage weight gain v vehicle control ([2]; hamster, in vivo, ip, 10 mg/kg): 0.018
average weight gain, % of starting weight during the study (day 28) ([2]; hamster, in vivo, ip, 10 mg/kg): 56.2%
statistically significant reduction in growth rate v control ([2]; hamster, in vivo, ip, 30 mg/kg): did not exhibit some statistically significant reductions in growth rate
Survival (animal recorded dead in weight table) ([2]; second study, group 6, animal 45 on day 0, animal 46 on day 1): dead
